In brackets after ≈: the same amount, converted by molar mass.
Tests used:
M tb H37Rv = test: MIC determination against M tb H37Rv (green fluorescent protein reporter assay; MIC-MABA); assay type: cell-based, Mycobacterium tuberculosis; details: Mycobacterium tuberculosis, H37RV, 240 h, read-out: M. TB H37Rv: MIC-MABA: MIC, M. tb H37Rv; 7H9 broth; 10 days exposure; MIC = lowest concentration inhibiting fluorescence by 90%
Mycobacterium abscessus = test: MIC against Mycobacterium abscessus (Mab_ATCC, MHII broth); assay type: cell-based; details: Mycobacteroides abscessus; Mycobacterium abscessus ATCC strain; Mueller-Hinton broth (MHII)
Excerpt: Key for Tables: MIC: Minimum Inhibitory Concentration; MABA: microplate-based Alamar Blue assay; Mab: Mycobacterium abscessus; ATCC: American Type Culture Collection; and MHII: Mueller-Hinton broth.

| SMILES | MIC (M tb H37Rv) [µg/mL] | MIC (Mycobacterium abscessus) [µg/mL] |
| --- | --- | --- |
| Cc1nc2[nH]c(C(=O)N[C@H]3CC[Si](C)(C)C3)cc2c(F)c1F (single isomer, unassigned) [MPL-295B] | < 0.004 | 0.12 (≈ 0.371 µM) |
| Cc1nc2[nH]c(C(=O)N[C@@H]3CCC[Si](C)(C)CC3)cc2c(F)c1Cl (single isomer, unassigned) [MPL-316A] | 0.014 (≈ 0.0381 µM) | 0.19 (≈ 0.516 µM) |
| COc1ccc2cc(C(=O)N[C@H]3CCC[Si](C)(C)CC3)[nH]c2n1 (single isomer, unassigned) [MPL-466A] | 0.042 (≈ 0.127 µM) | 0.25 (≈ 0.754 µM) |
| COc1ccc2cc(C(=O)N[C@@H]3CCC[Si](C)(C)CC3)[nH]c2n1 (single isomer, unassigned) [MPL-466B] | > 1 | 8 (≈ 24.1 µM) |
| C[C@@H]1[C@@H](NC(=O)c2cc3c(Br)ccnc3[nH]2)C[C@H]2C[C@@H]1C2(C)C [MPL-012, 4-bromo-N-[(1S,2S,3S,5R)-2,6,6-trimethylnorpinan-3-yl]-1H-pyrrolo[2,3-b]pyridine-2-carboxamide] | 0.048 (≈ 0.128 µM) | 4 (≈ 10.6 µM) |
| O=C(NC1CCCCCCC1)c1cc2c(Cl)cncc2[nH]1 [MPL-034, 4-chloro-N-cyclooctyl-1H-pyrrolo[2,3-c]pyridine-2-carboxamide] | 0.25 (≈ 0.818 µM) | 2 (≈ 6.54 µM) |
| Cc1cc(F)c2cc(C(=O)NC3CCCCCCC3)[nH]c2n1 [MPL-044, N-cyclooctyl-4-fluoro-6-methyl-1H-pyrrolo[2,3-b]pyridine-2-carboxamide] | 0.013 (≈ 0.0429 µM) | 2 (≈ 6.59 µM) |
| Cc1cc(Cl)c2cc(C(=O)N[C@H]3C[C@H]4C[C@@H]([C@@H]3C)C4(C)C)[nH]c2n1 [MPL-045, 4-chloro-6-methyl-N-[(1S,2S,3S,5R)-2,6,6-trimethylnorpinan-3-yl]-1H-pyrrolo[2,3-b]pyridine-2-carboxamide] | 0.069 (≈ 0.199 µM) | 2 (≈ 5.78 µM) |
| Cc1nc2[nH]c(C(=O)NC3CCC(C)(C)CC3)cc2c(F)c1F [MPL-067, N-(4,4-dimethylcyclohexyl)-4,5-difluoro-6-methyl-1H-pyrrolo[2,3-b]pyridine-2-carboxamide] | 0.01 (≈ 0.0311 µM) | 0.25 (≈ 0.778 µM) |
| Cc1cc(F)c2cc(C(=O)NC3CCC(C)(C)CC3)[nH]c2n1 [MPL-118, N-(4,4-dimethylcyclohexyl)-4-fluoro-6-methyl-1H-pyrrolo[2,3-b]pyridine-2-carboxamide] | 0.017 (≈ 0.056 µM) | 1 (≈ 3.3 µM) |
| Cc1cc(Cl)c2cc(C(=O)NC3CCC(C)(C)CC3)[nH]c2n1 [MPL-119, 4-chloro-N-(4,4-dimethylcyclohexyl)-6-methyl-1H-pyrrolo[2,3-b]pyridine-2-carboxamide] | 0.14 (≈ 0.438 µM) | 0.5 (≈ 1.56 µM) |
| Cc1cc2cc(C(=O)N[C@H]3C[C@H]4C[C@@H]([C@@H]3C)C4(C)C)[nH]c2cn1 [MPL-124, 5-methyl-N-[(1S,2S,3S,5R)-2,6,6-trimethylnorpinan-3-yl]-1H-pyrrolo[2,3-c]pyridine-2-carboxamide] | 3.1 (≈ 9.95 µM) | 16 (≈ 51.4 µM) |
| CC1(C)CCC(NC(=O)c2cc3cc(Cl)ncc3[nH]2)CC1 [MPL-127, 5-chloro-N-(4,4-dimethylcyclohexyl)-1H-pyrrolo[2,3-c]pyridine-2-carboxamide] | 0.54 (≈ 1.77 µM) | 8 (≈ 26.2 µM) |
| Cc1nc(F)cc2cc(C(=O)NC3CCC(C)(C)CC3)[nH]c12 [MPL-135, N-(4,4-dimethylcyclohexyl)-5-fluoro-7-methyl-1H-pyrrolo[2,3-c]pyridine-2-carboxamide] | 1.5 (≈ 4.94 µM) | 8 (≈ 26.4 µM) |
| CC1(C)C2CCC1(C)C(NC(=O)c1cc3c(F)cncc3[nH]1)C2 (stereo not shown) [MPL-188, 4-fluoro-N-(1,7,7-trimethylnorbornan-2-yl)-1H-pyrrolo[2,3-c]pyridine-2-carboxamide] | – | 8 (≈ 25.4 µM) |
| Cc1cc(Cl)c2cc(C(=O)NC3CC4CCC3(C)C4(C)C)[nH]c2n1 (stereo not shown) [MPL-195, 4-chloro-6-methyl-N-(1,7,7-trimethylnorbornan-2-yl)-1H-pyrrolo[2,3-b]pyridine-2-carboxamide] | 0.014 (≈ 0.0405 µM) | 2 (≈ 5.78 µM) |
| COc1cc(F)nc2[nH]c(C(=O)NC3CC[Si](C)(C)CC3)cc12 [MPL-200, N-(1,1-dimethylsilinan-4-yl)-6-fluoro-4-methoxy-1H-pyrrolo[2,3-b]pyridine-2-carboxamide] | 0.072 (≈ 0.215 µM) | 16 (≈ 47.7 µM) |
| Cc1cc(Cl)c2cc(C(=O)NC3CC[Si](C)(C)CC3)[nH]c2n1 [MPL-208, 4-chloro-N-(1,1-dimethylsilinan-4-yl)-6-methyl-1H-pyrrolo[2,3-b]pyridine-2-carboxamide] | 0.0045 (≈ 0.0134 µM) | 1 (≈ 2.98 µM) |
| Cc1cc(F)c2c(C)c(C(=O)NC3CC[Si](C)(C)CC3)[nH]c2n1 [MPL-209, N-(1,1-dimethylsilinan-4-yl)-4-fluoro-3,6-dimethyl-1H-pyrrolo[2,3-b]pyridine-2-carboxamide] | 0.03 (≈ 0.09 µM) | 1 (≈ 3 µM) |
| Cc1nc2[nH]c(C(=O)NC3CC[Si](C)(C)CC3)cc2c(F)c1F [MPL-229, N-(1,1-dimethylsilinan-4-yl)-4,5-difluoro-6-methyl-1H-pyrrolo[2,3-b]pyridine-2-carboxamide] | 0.0058 (≈ 0.0172 µM) | 0.12 (≈ 0.356 µM) |

| SMILES | MIC (M tb H37Rv) [µg/mL] | MIC (Mycobacterium abscessus) [µg/mL] |
| --- | --- | --- |
| Cc1nc2[nH]c(C(=O)NC3CC[Si](C)(C)CC3)cc2c(Cl)c1Cl [MPL-230, 4,5-dichloro-N-(1,1-dimethylsilinan-4-yl)-6-methyl-1H-pyrrolo[2,3-b]pyridine-2-carboxamide] | 0.004 (≈ 0.0108 µM) | 16 (≈ 43.2 µM) |
| Cc1nc2[nH]c(C(=O)NC3CC[Si](C)(C)CC3)cc2c(F)c1Cl [MPL-232, 5-chloro-N-(1,1-dimethylsilinan-4-yl)-4-fluoro-6-methyl-1H-pyrrolo[2,3-b]pyridine-2-carboxamide] | 0.03 (≈ 0.0848 µM) | 0.38 (≈ 1.07 µM) |
| Cc1nc2[nH]c(C(=O)NC3CC[Si](C)(C)CC3)cc2c(C)c1Cl [MPL-239, 5-chloro-N-(1,1-dimethylsilinan-4-yl)-4,6-dimethyl-1H-pyrrolo[2,3-b]pyridine-2-carboxamide] | 0.0078 (≈ 0.0223 µM) | 16 (≈ 45.7 µM) |
| Cc1cc(Cl)c2cc(C(=O)NC3CCC[Si](C)(C)CC3)[nH]c2n1 (stereo not shown) [MPL-274, 4-chloro-N-(1,1-dimethylsilepan-4-yl)-6-methyl-1H-pyrrolo[2,3-b]pyridine-2-carboxamide] | 0.01 (≈ 0.0286 µM) | 0.75 (≈ 2.14 µM) |
| Cc1nc2[nH]c(C(=O)NC3CC[Si](C)(C)C3)cc2c(F)c1F (stereo not shown) [MPL-295, N-(1,1-dimethylsilolan-3-yl)-4,5-difluoro-6-methyl-1H-pyrrolo[2,3-b]pyridine-2-carboxamide] | 0.024 (≈ 0.0742 µM) | 0.28 (≈ 0.866 µM) |
| Cc1nc2[nH]c(C(=O)NC3CCC[Si](C)(C)CC3)cc2c(F)c1Cl (stereo not shown) [MPL-316, 5-chloro-N-(1,1-dimethylsilepan-4-yl)-4-fluoro-6-methyl-1H-pyrrolo[2,3-b]pyridine-2-carboxamide] | 0.015 (≈ 0.0408 µM) | 0.16 (≈ 0.435 µM) |
| COc1ccc2cc(C(=O)NC3CC[Si](C)(C)CC3)[nH]c2n1 [MPL-387, N-(1,1-dimethylsilinan-4-yl)-6-methoxy-1H-pyrrolo[2,3-b]pyridine-2-carboxamide] | 0.163 (≈ 0.513 µM) | 0.5 (≈ 1.57 µM) |
| Cc1cc(Cl)c2cc(C(=O)NC3CC[Si](C)(C)C3)[nH]c2n1 (stereo not shown) [MPL-401, 4-chloro-N-(1,1-dimethylsilolan-3-yl)-6-methyl-1H-pyrrolo[2,3-b]pyridine-2-carboxamide] | 0.016 (≈ 0.0497 µM) | 0.75 (≈ 2.33 µM) |
| O=C(NC1CC[Si]2(CCCCC2)CC1)c1cc2cc(-c3cccnc3)cnc2[nH]1 [MPL-435, 5-(3-pyridyl)-N-(6-silaspiro[5.5]undecan-3-yl)-1H-pyrrolo[2,3-b]pyridine-2-carboxamide] | 1 (≈ 2.47 µM) | – |
| C[Si]1(C)CCC(NC(=O)c2cc3cc(-c4ccccc4)ncc3[nH]2)CC1 [MPL-445] | 0.119 (≈ 0.327 µM) | – |
| Cc1c(C(F)(F)F)ncc2[nH]c(C(=O)NC3CCC[Si](C)(C)CC3)cc12 (stereo not shown) [MPL-451, N-(1,1-dimethylsilepan-4-yl)-4-methyl-5-(trifluoromethyl)-1H-pyrrolo[2,3-c]pyridine-2-carboxamide] | 0.99 (≈ 2.58 µM) | – |
| COc1ncc2[nH]c(C(=O)NC3CC[Si](C)(C)CC3)cc2c1C(F)(F)F [MPL-452, N-(1,1-dimethylsilinan-4-yl)-5-methoxy-4-(trifluoromethyl)-1H-pyrrolo[2,3-c]pyridine-2-carboxamide] | 0.118 (≈ 0.306 µM) | – |
| COc1ccc2cc(C(=O)NC3CCC(C)(C)CC3)[nH]c2n1 [MPL-453, N-(4,4-dimethylcyclohexyl)-6-methoxy-1H-pyrrolo[2,3-b]pyridine-2-carboxamide] | 0.284 (≈ 0.942 µM) | 0.5 (≈ 1.66 µM) |
| COc1ccc2cc(C(=O)NC3CC[Si]4(CCCC4)CC3)[nH]c2n1 [MPL-454, 6-methoxy-N-(5-silaspiro[4.5]decan-8-yl)-1H-pyrrolo[2,3-b]pyridine-2-carboxamide] | 0.458 (≈ 1.33 µM) | – |
| COc1ccc2cc(C(=O)NC3CC[Si]4(CCCCC4)CC3)[nH]c2n1 [MPL-455, 6-methoxy-N-(6-silaspiro[5.5]undecan-3-yl)-1H-pyrrolo[2,3-b]pyridine-2-carboxamide] | 0.121 (≈ 0.338 µM) | – |
| COc1cc(Cl)c2cc(C(=O)NC3CC[Si](C)(C)CC3)[nH]c2n1 [MPL-465, 4-chloro-N-(1,1-dimethylsilinan-4-yl)-6-methoxy-1H-pyrrolo[2,3-b]pyridine-2-carboxamide] | 0.008 (≈ 0.0227 µM) | – |
| COc1ccc2cc(C(=O)NC3CCC[Si](C)(C)CC3)[nH]c2n1 (stereo not shown) [MPL-466, N-(1,1-dimethylsilepan-4-yl)-6-methoxy-1H-pyrrolo[2,3-b]pyridine-2-carboxamide] | 0.119 (≈ 0.359 µM) | – |
| C[Si]1(C)CCC(NC(=O)c2cc3ccc(OC4CCC4)nc3[nH]2)CC1 [MPL-467, 6-(cyclobutoxy)-N-(1,1-dimethylsilinan-4-yl)-1H-pyrrolo[2,3-b]pyridine-2-carboxamide] | 0.121 (≈ 0.338 µM) | – |
| COc1ccc2cc(C(=O)NC3CCC[Si](C)(C)CCC3)[nH]c2n1 [MPL-469, N-(1,1-dimethylsilocan-5-yl)-6-methoxy-1H-pyrrolo[2,3-b]pyridine-2-carboxamide] | 0.206 (≈ 0.596 µM) | – |

— patent publication US20230002372A1, “AZAINDOLE CARBOXAMIDE COMPOUNDS FOR THE TREATMENT OF MYCOBACTERIAL INFECTIONS” (THE GLOBAL ALLIANCE FOR TB DRUG DEVELOPMENT, INC., priority 2019, published 2023)
